Target: T1, human S1P1 receptors (Homo sapiens, UniProt P21453)
T1 construct: host or cells: HEK293
Test: S1P1R antagonist assay (fluorescent membrane potential dye, cAMP readout)
Assay type: cell-based
Conditions: HEK293 cells expressing human S1P1 receptors and CNG channel; 500 nM NECA; S1P1R agonist 10 nM; 90 minutes; read-out: EC50 or IC50 value

T1 sequence (P21453 whole entry): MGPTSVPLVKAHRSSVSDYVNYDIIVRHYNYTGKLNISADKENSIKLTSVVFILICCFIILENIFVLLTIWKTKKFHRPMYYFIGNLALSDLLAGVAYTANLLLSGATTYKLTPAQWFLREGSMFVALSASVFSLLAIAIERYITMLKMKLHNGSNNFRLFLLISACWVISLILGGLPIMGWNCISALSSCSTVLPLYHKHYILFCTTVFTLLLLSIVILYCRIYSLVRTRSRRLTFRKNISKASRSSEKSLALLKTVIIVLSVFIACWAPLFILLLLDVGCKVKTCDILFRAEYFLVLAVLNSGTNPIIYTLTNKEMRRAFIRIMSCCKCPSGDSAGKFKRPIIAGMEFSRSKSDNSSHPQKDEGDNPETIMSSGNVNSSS

IC50 | SMILES
300 to 1000 nM | O=C(Cc1cccc(Br)c1)N[C@@H](COCc1ccccc1)C(=O)Nc1ccc(Oc2ccc(F)cc2)cc1 [Compound 244, (S)-3-(benzyloxy)-2-(2-(3-bromophenyl)acetamido)-N-(4-(4-fluorophenoxy)phenyl)propanamide]
≤ 300 nM | O=C(CC[N+](=O)[O-])N[C@@H](COCc1ccccc1)C(=O)Nc1ccc(Oc2ccc(F)cc2)cc1 [Compound 245, (S)-3-(benzyloxy)-N-(4-(4-fluorophenoxy)phenyl)-2-(3-nitropropanamido)propanamide]
≤ 300 nM | O=C(Cc1ccccn1)N[C@@H](COCc1ccccc1)C(=O)Nc1ccc(Oc2ccc(F)cc2)cc1 [Compound 246, (S)-3-(benzyloxy)-N-(4-(4-fluorophenoxy)phenyl)-2-(2-(pyridin-2-yl)acetamido)propanamide]
≤ 300 nM | O=C(Cc1cccnc1)N[C@@H](COCc1ccccc1)C(=O)Nc1ccc(Oc2ccc(F)cc2)cc1 [Compound 247, (S)-3-(benzyloxy)-N-(4-(4-fluorophenoxy)phenyl)-2-(2-(pyridin-3-yl)acetamido)propanamide]
300 to 1000 nM | CC(C)=CCC[C@H](C)CC(=O)N[C@@H](COCc1ccccc1)C(=O)Nc1ccc(Oc2ccc(F)cc2)cc1 [Compound 248, (S)—N—((S)-3-(benzyloxy)-1-(4-(4-fluorophenoxy)phenylamino)-1-oxopropan-2-yl)-3,7-dimethyloct-6-enamide]
300 to 1000 nM | O=C(Cc1ccccc1)N[C@@H](COCc1ccccc1)C(=O)Nc1ccc(Oc2ccc(F)cc2)cc1 [Compound 249, (S)-3-(benzyloxy)-N-(4-(4-fluorophenoxy)phenyl)-2-(2-phenylacetamido)propanamide]
≤ 300 nM | O=C(Cc1cncnc1)N[C@@H](COCc1ccccc1)C(=O)Nc1ccc(Oc2ccc(F)cc2)cc1 [Compound 250, (S)-3-(benzyloxy)-N-(4-(4-fluorophenoxy)phenyl)-2-(2-(pyrimidin-5-yl)acetamido)propanamide]
≤ 300 nM | O=C(Nc1ccc(Oc2ccc(F)cc2)cc1)[C@@H]1C[C@@H](c2ccccc2)CN1C(=O)Cc1cnc[nH]1 [Compound 251, (2S,4S)-1-(2-(1H-imidazol-5-yl)acetyl)-N-(4-(4-fluorophenoxy)phenyl)-4-phenylpyrrolidine-2-carboxamide]
≤ 300 nM | O=C(Nc1ccc(Oc2ccc(F)cc2)cc1)[C@@H]1C[C@@H](OCc2ccccc2)CN1C(=O)Cn1cncn1 [Compound 252, (2S,4R)-1-(2-(1H-1,2,4-triazol-1-yl)acetyl)-4-(benzyloxy)-N-(4-(4-fluorophenoxy)phenyl)pyrrolidine-2-carboxamide]
≤ 300 nM | O=C(N[C@@H]1C[C@@H](C(=O)Nc2ccc(Oc3ccc(F)cc3)cc2)N(C(=O)Cc2cnc[nH]2)C1)OCc1ccccc1 [Compound 253, benzyl (3R,5S)-1-(2-(1H-imidazol-5-yl)acetyl)-5-(4-(4-fluorophenoxy)phenylcarbamoyl)pyrrolidin-3-ylcarbamate]
≤ 300 nM | CC(=O)NCCC[C@H](NC(=O)Cn1cncn1)C(=O)Nc1ccc(Oc2ccc(F)cc2)cc1 [Compound 254, (S)-2-(2-(1H-1,2,4-triazol-1-yl)acetamido)-5-acetamido-N-(4-(4-fluorophenoxy)phenyl)pentanamide]
300 to 1000 nM | CC(C)(C(=O)N[C@@H](COCc1ccccc1)C(=O)Nc1ccc(Oc2ccc(F)cc2)cc1)n1cncn1 [Compound 255, (S)-3-(benzyloxy)-N-(4-(4-fluorophenoxy)phenyl)-2-(2-methyl-2-(1H-1,2,4-triazol-1-yl)propanamido)propanamide]
≤ 300 nM | Cc1nc(C)n(CC(=O)N[C@@H](COCc2ccccc2)C(=O)Nc2ccc(Oc3ccc(F)cc3)cc2)n1 [Compound 256, (S)-3-(benzyloxy)-2-(2-(3,5-dimethyl-1H-1,2,4-triazol-1-yl)acetamido)-N-(4-(4-fluorophenoxy)phenyl)propanamide]

Source: patent US8791102B2, “Acetanilide sphingosine-1-phosphate receptor antagonists” (Exelixis, Inc., priority 2008, dated 2014)
